Laboratory results from ChEMBL document CHEMBL1144136, “Anti-HIV-1 protease triterpenoid saponins from the seeds of Aesculus chinensis” (J Nat Prod, 1999).

What follows are molecules tested against Protease (Human immunodeficiency virus 1, UniProt Q9YQ12) (assay: Inhibition of HIV1 protease).
Sequence of Protease (Q9YQ12 whole entry): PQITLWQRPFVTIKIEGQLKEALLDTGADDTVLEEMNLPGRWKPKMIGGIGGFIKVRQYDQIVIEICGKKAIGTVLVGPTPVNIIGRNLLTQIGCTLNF

| SMILES | IC50 |
| --- | --- |
| C/C=C(\C)C(=O)O[C@H]1[C@H](OC(C)=O)[C@]2(CO)[C@H](O)C[C@]3(C)C(=CC[C@@H]4[C@@]5(C)CC[C@H](O[C@@H]6O[C@H](C(=O)O)[C@@H](O[C@@H]7O[C@H](CO)[C@@H](O)[C@H](O)[C@H]7O)[C@H](O)[C@H]6O[C@@H]6O[C@H](CO)[C@@H](O)[C@H](O)[C@H]6O)[C@](C)(CO)[C@@H]5CC[C@]43C)[C@@H]2CC1(C)C [ESCIN IA] | 35 µM |
| C/C=C(/C)C(=O)O[C@H]1[C@H](OC(C)=O)[C@]2(CO)[C@H](O)C[C@]3(C)C(=CC[C@@H]4[C@@]5(C)CC[C@H](O[C@@H]6O[C@H](C(=O)O)[C@@H](O[C@@H]7O[C@H](CO)[C@@H](O)[C@H](O)[C@H]7O)[C@H](O)[C@H]6O[C@@H]6O[C@H](CO)[C@@H](O)[C@H](O)[C@H]6O)[C@](C)(CO)[C@@H]5CC[C@]43C)[C@@H]2CC1(C)C [ESCIN IB] | 50 µM |

Each molecule was assayed against Protease (Human immunodeficiency virus 1) (UniProt Q9YQ12) (assay: Inhibition of HIV1 protease at 100 uM).
Sequence of Protease (Human immunodeficiency virus 1) (Q9YQ12 as listed by the source): as the sequence (Q9YQ12 whole entry) above

| inhibition | SMILES |
| --- | --- |
| 35.2% | C/C=C(\C)C(=O)O[C@H]1[C@H](O)C(C)(C)C[C@H]2C3=CC[C@@H]4[C@@]5(C)CC[C@H](O[C@@H]6O[C@H](C(=O)O)[C@@H](O[C@@H]7O[C@H](CO)[C@@H](O)[C@H](O)[C@H]7O)[C@H](O)[C@H]6O[C@@H]6O[C@H](CO)[C@@H](O)[C@H](O)[C@H]6O)[C@](C)(CO)[C@@H]5CC[C@@]4(C)[C@]3(C)C[C@@H](O)[C@]21COC(C)=O |
| 39% | C/C=C(\C)C(=O)O[C@H]1[C@H](O)[C@]2(COC(C)=O)[C@H](O)C[C@]3(C)C(=CC[C@@H]4[C@@]5(C)CC[C@H](O[C@@H]6O[C@H](C(=O)O)[C@@H](O[C@@H]7O[C@H](CO)[C@@H](O)[C@H](O)[C@H]7O)[C@H](O)[C@H]6O[C@@H]6O[C@H](CO)[C@@H](O)[C@H](O)[C@H]6O)[C@](C)(CO)[C@@H]5CC[C@]43C)[C@@H]2CC1(C)C |
| 12.5% | C/C=C(/C)C(=O)OC[C@@]12[C@H](O)C[C@]3(C)C(=CC[C@@H]4[C@@]5(C)CC[C@H](O[C@@H]6O[C@H](C(=O)O)[C@@H](O[C@@H]7O[C@H](CO)[C@@H](O)[C@H](O)[C@H]7O)[C@H](O)[C@H]6O[C@@H]6O[C@H](CO)[C@@H](O)[C@H](O)[C@H]6O)[C@](C)(CO)[C@@H]5CC[C@]43C)[C@@H]1CC(C)(C)[C@@H](O)[C@@H]2O |
| 34% | C/C=C(/C)C(=O)O[C@H]1[C@H](O)C(C)(C)C[C@H]2C3=CC[C@@H]4[C@@]5(C)CC[C@H](O[C@@H]6O[C@H](C(=O)O)[C@@H](O[C@@H]7O[C@H](CO)[C@@H](O)[C@H](O)[C@H]7O)[C@H](O)[C@H]6O[C@@H]6O[C@H](CO)[C@@H](O)[C@H](O)[C@H]6O)[C@](C)(CO)[C@@H]5CC[C@@]4(C)[C@]3(C)C[C@@H](O)[C@]21COC(C)=O |
| 14.7% | C/C=C(/C)C(=O)O[C@H]1[C@H](O)[C@]2(COC(C)=O)[C@H](O)C[C@]3(C)C(=CC[C@@H]4[C@@]5(C)CC[C@H](O[C@@H]6O[C@H](C(=O)O)[C@@H](O[C@@H]7O[C@H](CO)[C@@H](O)[C@H](O)[C@H]7O)[C@H](O)[C@H]6O[C@@H]6O[C@H](CO)[C@@H](O)[C@H](O)[C@H]6O)[C@](C)(CO)[C@@H]5CC[C@]43C)[C@@H]2CC1(C)C |
| 15.9% | C/C=C(\C)C(=O)OC[C@@]12[C@H](O)C[C@]3(C)C(=CC[C@@H]4[C@@]5(C)CC[C@H](O[C@@H]6O[C@H](C(=O)O)[C@@H](O[C@@H]7O[C@H](CO)[C@@H](O)[C@H](O)[C@H]7O)[C@H](O)[C@H]6O[C@@H]6O[C@H](CO)[C@@H](O)[C@H](O)[C@H]6O)[C@](C)(CO)[C@@H]5CC[C@]43C)[C@@H]1CC(C)(C)[C@@H](O)[C@@H]2O |
